Ten compounds from patent US11207312B2, “Metallo-beta-lactamase inhibitors and methods of use thereof” (priority 2017, dated 2021) can be followed below.

The target in series [1] is VIM-2 (Escherichia coli, UniProt Q5U7L7). Description: biochemical. The note with it: CCF2-FA fluorescence assay; read-out: VIM2 IC50.
Series [2] relates to Escherichia coli expressing NDM-1 (CLB30016). The format is cell-based. The note with it: with imipenem 1 μg/ml; 95% inhibition of bacterial growth. In a few lines: (§1)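 Read-out is absorbance after 22–24 h at 35 °C, with MITC95 taken as the lowest inhibitor concentration that, alongside imipenem at 1 μg/ml, suppresses 95% of bacterial growth. Inocula came from saline-suspended colonies diluted 1:100 into 1.1× CAMHB.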

Series [3] relates to Klebsiella pneumoniae expressing VIM-1 (IHMA599644). The format is cell-based. The note with it: with imipenem 1 μg/ml; 95% inhibition of bacterial growth. The method, boiled down: as §1
Series [4] has as its system Serratia marcescens expressing IMP-1 (CL5741). The format is cell-based. Conditions: with imipenem 1 μg/ml; 95% inhibition of bacterial growth. The method, boiled down:
as §1

In series [5] the target is VIM-1 (Pseudomonas aeruginosa (strain ATCC 15692 / DSM 22644 / CIP 104116 / JCM 14847 / LMG 12228 / 1C / PRS 101 / PAO1), UniProt A0A0F7KYQ8). Description: biochemical. The note with it: CCF2-FA fluorescence assay, 2 hours at 25° C.; read-out: VIM1 IC50. The method, boiled down:
(§2)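 Buffer 100 mM KH2PO4 pH 7, 0.005% Tween-20, 10 μM ZnSO4. NDM-1 1 pM, IMP-1 2 pM, VIM-1 30 pM final; CCF2-FA 1.25 μM. Cpd 20–0.00063 μM, 2 h, 25° C. Ex 405/Em 460 nm; IC50 via 4-parameter curve.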

Series [6] concerns the target IMP-1 (Serratia marcescens, UniProt P52699). Description: biochemical. Conditions: CCF2-FA fluorescence assay, 2 hours at 25° C.; read-out: IMP1 IC50. The method, boiled down:
as §2

For series [7], the target named is NDM-1 (Klebsiella pneumoniae, UniProt C7C422). Nature of the series: biochemical. The format is biochemical. Conditions: CCF2-FA fluorescence assay, 2 hours at 25° C. In a few lines:
as §2

Series [8] has as its system P. aeruginosa MB9799 (efflux-, IMP-1 plasmid). The format is cell-based, Pseudomonas aeruginosa. The note with it: efflux − (MB9799) strain; imipenem at 2 μg/mL; in the presence of a class A, C, D serine β-lactamase inhibitor closely related to relebactam. The method, boiled down:
(§3)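 Isogenic P. aeruginosa PAO1 strains (efflux+ and multiple-efflux-pump-disrupted) carrying plasmid IMP-1, with inducible AmpC, tested by broth microdilution. Imipenem and/or ceftazidime fixed, usually at CLSI breakpoint, plus fixed class A/C β-lactamase inhibitor; titrated MBL inhibitor concentration restoring susceptibility recorded and compared between strains as efflux fold difference.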

In series [9] the test system is P. aeruginosa MB9798 (efflux+, IMP-1 plasmid). The note with it: for MB9798 MITC95 P. aeruginosa uM Efflux WT: efflux + (MB9798) strain, imipenem at 2 μg/mL, in the presence of a class A, C, D serine β-lactamase inhibitor closely related to relebactam; for Efflux ratio: fold difference between efflux+ (MB9798) and efflux− (MB9799) strains. In a few lines: as §3

Chain of NDM-1 (C7C422 whole entry, looked up, species assumed): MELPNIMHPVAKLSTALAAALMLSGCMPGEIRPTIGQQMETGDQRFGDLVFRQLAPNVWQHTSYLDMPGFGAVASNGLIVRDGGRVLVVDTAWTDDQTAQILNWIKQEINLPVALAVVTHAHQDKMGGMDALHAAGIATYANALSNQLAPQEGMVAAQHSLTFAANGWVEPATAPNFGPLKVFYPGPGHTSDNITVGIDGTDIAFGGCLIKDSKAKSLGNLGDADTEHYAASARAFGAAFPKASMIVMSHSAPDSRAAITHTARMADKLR
Chain of IMP-1 (P52699 whole entry, looked up, species assumed): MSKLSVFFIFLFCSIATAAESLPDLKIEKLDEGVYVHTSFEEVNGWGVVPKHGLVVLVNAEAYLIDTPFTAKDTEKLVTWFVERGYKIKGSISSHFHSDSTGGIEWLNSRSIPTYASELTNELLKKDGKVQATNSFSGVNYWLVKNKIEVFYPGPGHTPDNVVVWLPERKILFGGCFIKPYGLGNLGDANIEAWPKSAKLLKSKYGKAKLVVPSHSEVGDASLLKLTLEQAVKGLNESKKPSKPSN

As to `NS(=O)(=O)c1c(S(=O)(=O)N[C@@H]2CCNC2)ccc(N2CCC(O)CC2=O)c1-c1nn[nH]n1` (stereo partly drawn) [Example 159, 4-(4-hydroxy-2-oxopiperidin-1-yl)-N1-((R)-pyrrolidin-3-yl)-3-(2H-tetrazol-5-yl)benzene-1,2-disulfonamide], the concentration for half-maximal inhibition (IC50) in series [1] turned out to be 2.62 nM; in series [5] it was 0.38 nM; in series [6], 15.9 nM; in series [7], 0.61 nM. Moreover, the “CLB30016 E. coli MITC95 NDM” value in series [2] is 1.56 µM. Also, the “IHMA599644 K. pneumoniae MITC95 VIM” value in series [3] worked out at 6.25 µM. Moreover, in [4], the “CL5741 S. marcescens MITC95 IMP” value is 0.78 µM. Also, the “MB9799 MITC95 P. aeruginosa uM Efflux Mutant” value in [8] came to 1.56 µM. In series [9], the “MB9798 MITC95 P. aeruginosa uM Efflux WT” value stood at 6.25 µM. Besides, in [9], the Efflux ratio was found to be 4.00.

Consider `NC[C@@H](O)CNS(=O)(=O)c1ccc(N2CCN(C(CO)CO)CC2)c(-c2nn[nH]n2)c1S(N)(=O)=O` [Example 160, (R)-N1-(3-amino-2-hydroxypropyl)-4-(4-(1,3-dihydroxypropan-2-yl)piperazin-1-yl)-3-(2H-tetrazol-5-yl)benzene-1,2-disulfonamide], for which the IC50 came out at 5.49 nM in series [1], 1.34 nM in [5], 1.2 nM in series [6] and 1.16 nM in series [7]. Further, the “CLB30016 E. coli MITC95 NDM” value in series [2] is 0.78 µM. The “IHMA599644 K. pneumoniae MITC95 VIM” value in series [3] was determined as 1.56 µM. Moreover, the “CL5741 S. marcescens MITC95 IMP” value in series [4] turned out to be 0.20 µM. In [8], the “MB9799 MITC95 P. aeruginosa uM Efflux Mutant” value worked out at 1.56 µM. Further, in [9], the “MB9798 MITC95 P. aeruginosa uM Efflux WT” value turned out to be 1.56 µM. Besides, the Efflux ratio in series [9] was 1.00.

With `NC[C@@H](O)CNS(=O)(=O)c1ccc(N2C[C@H]3CNC[C@H]3C2)c(-c2nn[nH]n2)c1S(N)(=O)=O` [Example 161, N1-((R)-3-amino-2-hydroxypropyl)-4-((3aR,6aS)-hexahydropyrrolo[3,4-c]pyrrol-2(1H)-yl)-3-(2H-tetrazol-5-yl)benzene-1,2-disulfonamide], the IC50 is 14.9 nM in series [1], 0.89 nM in series [5], 45.4 nM in series [6] and 12.2 nM in series [7]. Moreover, the “CLB30016 E. coli MITC95 NDM” value in [2] was found to be 1.56 µM. Besides, in series [3], the “IHMA599644 K. pneumoniae MITC95 VIM” value came out at 1.56 µM. Also, the “CL5741 S. marcescens MITC95 IMP” value in series [4] is 3.13 µM. The “MB9799 MITC95 P. aeruginosa uM Efflux Mutant” value in series [8] amounted to 6.25 µM. For the same compound, the “MB9798 MITC95 P. aeruginosa uM Efflux WT” value in series [9] is 12.50 µM. The Efflux ratio in [9] amounted to 2.00.

As to `NS(=O)(=O)c1c(S(=O)(=O)N[C@@H]2CCNC2)ccc(N2CCN(CCO)CC2)c1-c1nn[nH]n1` [Example 162, (R)-4-(4-(2-hydroxyethyl)piperazin-1-yl)-N1-(pyrrolidin-3-yl)-3-(2H-tetrazol-5-yl)benzene-1,2-disulfonamide], the half-inhibitory concentration (IC50) in [1] came to 6.33 nM; in series [5], 2.45 nM; in [6], 2.17 nM; in series [7], 1.2 nM. In series [2], the “CLB30016 E. coli MITC95 NDM” value amounted to 0.29 µM. For the same compound, the “IHMA599644 K. pneumoniae MITC95 VIM” value in [3] was determined as 1.95 µM. For the same compound, in series [4], the “CL5741 S. marcescens MITC95 IMP” value came out at 0.20 µM. Further, the “MB9799 MITC95 P. aeruginosa uM Efflux Mutant” value in series [8] worked out at 1.17 µM. In series [9], the “MB9798 MITC95 P. aeruginosa uM Efflux WT” value was determined as 2.34 µM.

Take `COC(=O)C1CCN(c2ccc(S(=O)(=O)N[C@@H]3CCNC3)c(S(N)(=O)=O)c2-c2nn[nH]n2)CCN1.Cl` (stereo partly drawn) [Example 164, Methyl 1-(4-(N-((R)-pyrrolidin-3-yl)sulfamoyl)-3-sulfamoyl-2-(2H-tetrazol-5-yl)phenyl)-1,4-diazepane-5-carboxylate hydrochloride]: the half-maximal inhibitory concentration (IC50) was determined as 0.69 nM in series [1], 0.12 nM in series [5], 0.54 nM in series [6] and 0.63 nM in series [7]. Also, the “CLB30016 E. coli MITC95 NDM” value in [2] worked out at 0.39 µM. The “IHMA599644 K. pneumoniae MITC95 VIM” value in series [3] was 3.13 µM. In addition, the “CL5741 S. marcescens MITC95 IMP” value in series [4] amounted to 1.56 µM. The “MB9799 MITC95 P. aeruginosa uM Efflux Mutant” value in series [8] was 3.13 µM. The “MB9798 MITC95 P. aeruginosa uM Efflux WT” value in [9] came out at 6.25 µM. For the same compound, the Efflux ratio in series [9] was 2.00.

Take `NC(=O)C1CCN(c2ccc(S(=O)(=O)N[C@@H]3CCNC3)c(S(N)(=O)=O)c2-c2nn[nH]n2)CCN1` (stereo partly drawn) [Example 165, 1-(4-(N-((R)-pyrrolidin-3-yl)sulfamoyl)-3-sulfamoyl-2-(2H-tetrazol-5-yl)phenyl)-1,4-diazepane-5-carboxamide]: the IC50 stood at 2.35 nM in series [1], 0.38 nM in series [5], 2.43 nM in series [6] and 1.21 nM in [7]. Besides, the “CLB30016 E. coli MITC95 NDM” value in [2] amounted to 0.20 µM. Besides, the “IHMA599644 K. pneumoniae MITC95 VIM” value in series [3] was 1.56 µM. For the same compound, the “CL5741 S. marcescens MITC95 IMP” value in series [4] is 0.20 µM. Moreover, the “MB9799 MITC95 P. aeruginosa uM Efflux Mutant” value in series [8] came to 0.78 µM. Moreover, the “MB9798 MITC95 P. aeruginosa uM Efflux WT” value in [9] is 1.56 µM. Further, the Efflux ratio in series [9] is recorded as 2.00.

For `NS(=O)(=O)c1c(S(=O)(=O)N[C@@H]2CCNC2)ccc(N2CCC(c3c[nH]cn3)CC2)c1-c1nn[nH]n1` [Example 166, (R)-4-(4-(1H-imidazol-4-yl)piperidin-1-yl)-N1-(pyrrolidin-3-yl)-3-(2H-tetrazol-5-yl)benzene-1,2-disulfonamide], the half-maximal inhibitory concentration (IC50) in [1] worked out at 0.53 nM; in series [5] it was 0.09 nM; in [6] it was 0.22 nM; in series [7] it was 0.12 nM. Moreover, the “CLB30016 E. coli MITC95 NDM” value in [2] came out at 0.78 µM. Besides, the “IHMA599644 K. pneumoniae MITC95 VIM” value in [3] was 1.56 µM. Also, the “CL5741 S. marcescens MITC95 IMP” value in series [4] amounted to 0.78 µM. Further, the “MB9799 MITC95 P. aeruginosa uM Efflux Mutant” value in [8] amounted to 0.78 µM. In [9], the “MB9798 MITC95 P. aeruginosa uM Efflux WT” value is 0.78 µM. Moreover, the Efflux ratio in series [9] was found to be 1.00.

Turning to `NCCNS(=O)(=O)C1CCN(c2ccc(S(=O)(=O)N[C@@H]3CCNC3)c(S(N)(=O)=O)c2-c2nn[nH]n2)CC1` [Example 167, (R)-4-(4-(N-(2-aminoethyl)sulfamoyl)piperidin-1-yl)-N1-(pyrrolidin-3-yl)-3-(2H-tetrazol-5-yl)benzene-1,2-disulfonamide], the IC50 in series [1] worked out at 0.4 nM; in [5] it was 0.05 nM; in series [6] it was 0.25 nM; in series [7], 0.25 nM. Further, the “CLB30016 E. coli MITC95 NDM” value in series [2] stood at 1.17 µM. In series [3], the “IHMA599644 K. pneumoniae MITC95 VIM” value was found to be 1.56 µM. In series [4], the “CL5741 S. marcescens MITC95 IMP” value came to 1.17 µM. Besides, in series [8], the “MB9799 MITC95 P. aeruginosa uM Efflux Mutant” value was determined as 0.78 µM. Besides, the “MB9798 MITC95 P. aeruginosa uM Efflux WT” value in series [9] worked out at 0.78 µM. Also, in series [9], the Efflux ratio turned out to be 1.00.

In the case of `NC[C@H](N)CNS(=O)(=O)c1ccc(N2CCC(c3c[nH]cn3)CC2)c(-c2nn[nH]n2)c1S(N)(=O)=O` [Example 168, (S)-4-(4-(1H-imidazol-4-yl)piperidin-1-yl)-N1-(2,3-diaminopropyl)-3-(2H-tetrazol-5-yl)benzene-1,2-disulfonamide], the IC50 in series [1] was determined as 0.48 nM; in series [5], 0.07 nM; in [6], 0.24 nM; in series [7] it was 0.17 nM. Also, in series [2], the “CLB30016 E. coli MITC95 NDM” value worked out at 0.39 µM. The “IHMA599644 K. pneumoniae MITC95 VIM” value in [3] was determined as 1.56 µM. Further, the “CL5741 S. marcescens MITC95 IMP” value in series [4] came out at 0.78 µM. For the same compound, the “MB9799 MITC95 P. aeruginosa uM Efflux Mutant” value in series [8] was found to be 0.78 µM. The “MB9798 MITC95 P. aeruginosa uM Efflux WT” value in [9] was 1.56 µM. In addition, the Efflux ratio in [9] was 2.00.

As to `NC[C@@H](O)CNS(=O)(=O)c1ccc(N2CCC(c3c[nH]cn3)CC2)c(-c2nnn[nH]2)c1S(N)(=O)=O` [Example 169, (R)-4-(4-(1H-imidazol-4-yl)piperidin-1-yl)-N1-(3-amino-2-hydroxypropyl)-3-(1H-tetrazol-5-yl)benzene-1,2-disulfonamide], the half-maximal inhibitory concentration (IC50) is 0.4 nM in series [1], 0.1 nM in series [5], 0.26 nM in [6] and 0.23 nM in series [7]. Moreover, the “CLB30016 E. coli MITC95 NDM” value in series [2] is 0.39 µM. Besides, in series [3], the “IHMA599644 K. pneumoniae MITC95 VIM” value is 2.34 µM. Further, the “CL5741 S. marcescens MITC95 IMP” value in series [4] was determined as 1.17 µM. In addition, in [8], the “MB9799 MITC95 P. aeruginosa uM Efflux Mutant” value was determined as 0.78 µM. Besides, in [9], the “MB9798 MITC95 P. aeruginosa uM Efflux WT” value was found to be 0.78 µM. Also, in series [9], the Efflux ratio is given as 1.00.

By IC50 is commonly meant the concentration needed to halve the response being measured.
